Read-outs that look alike come from different tables or passages of the source.

The values that follow come from patent US9212182B2, “Bicyclic sulfonamide compounds as sodium channel inhibitors” (AMGEN INC., priority 2013, dated 2015).

The assay has as its target Nav 1.7 (Homo sapiens (Human), UniProt Q15858). The assay is described as follows: in-vitro Nav 1.7 PX (IC50). The class given is cell-based.

Sequence of Nav 1.7 (Q15858 whole entry): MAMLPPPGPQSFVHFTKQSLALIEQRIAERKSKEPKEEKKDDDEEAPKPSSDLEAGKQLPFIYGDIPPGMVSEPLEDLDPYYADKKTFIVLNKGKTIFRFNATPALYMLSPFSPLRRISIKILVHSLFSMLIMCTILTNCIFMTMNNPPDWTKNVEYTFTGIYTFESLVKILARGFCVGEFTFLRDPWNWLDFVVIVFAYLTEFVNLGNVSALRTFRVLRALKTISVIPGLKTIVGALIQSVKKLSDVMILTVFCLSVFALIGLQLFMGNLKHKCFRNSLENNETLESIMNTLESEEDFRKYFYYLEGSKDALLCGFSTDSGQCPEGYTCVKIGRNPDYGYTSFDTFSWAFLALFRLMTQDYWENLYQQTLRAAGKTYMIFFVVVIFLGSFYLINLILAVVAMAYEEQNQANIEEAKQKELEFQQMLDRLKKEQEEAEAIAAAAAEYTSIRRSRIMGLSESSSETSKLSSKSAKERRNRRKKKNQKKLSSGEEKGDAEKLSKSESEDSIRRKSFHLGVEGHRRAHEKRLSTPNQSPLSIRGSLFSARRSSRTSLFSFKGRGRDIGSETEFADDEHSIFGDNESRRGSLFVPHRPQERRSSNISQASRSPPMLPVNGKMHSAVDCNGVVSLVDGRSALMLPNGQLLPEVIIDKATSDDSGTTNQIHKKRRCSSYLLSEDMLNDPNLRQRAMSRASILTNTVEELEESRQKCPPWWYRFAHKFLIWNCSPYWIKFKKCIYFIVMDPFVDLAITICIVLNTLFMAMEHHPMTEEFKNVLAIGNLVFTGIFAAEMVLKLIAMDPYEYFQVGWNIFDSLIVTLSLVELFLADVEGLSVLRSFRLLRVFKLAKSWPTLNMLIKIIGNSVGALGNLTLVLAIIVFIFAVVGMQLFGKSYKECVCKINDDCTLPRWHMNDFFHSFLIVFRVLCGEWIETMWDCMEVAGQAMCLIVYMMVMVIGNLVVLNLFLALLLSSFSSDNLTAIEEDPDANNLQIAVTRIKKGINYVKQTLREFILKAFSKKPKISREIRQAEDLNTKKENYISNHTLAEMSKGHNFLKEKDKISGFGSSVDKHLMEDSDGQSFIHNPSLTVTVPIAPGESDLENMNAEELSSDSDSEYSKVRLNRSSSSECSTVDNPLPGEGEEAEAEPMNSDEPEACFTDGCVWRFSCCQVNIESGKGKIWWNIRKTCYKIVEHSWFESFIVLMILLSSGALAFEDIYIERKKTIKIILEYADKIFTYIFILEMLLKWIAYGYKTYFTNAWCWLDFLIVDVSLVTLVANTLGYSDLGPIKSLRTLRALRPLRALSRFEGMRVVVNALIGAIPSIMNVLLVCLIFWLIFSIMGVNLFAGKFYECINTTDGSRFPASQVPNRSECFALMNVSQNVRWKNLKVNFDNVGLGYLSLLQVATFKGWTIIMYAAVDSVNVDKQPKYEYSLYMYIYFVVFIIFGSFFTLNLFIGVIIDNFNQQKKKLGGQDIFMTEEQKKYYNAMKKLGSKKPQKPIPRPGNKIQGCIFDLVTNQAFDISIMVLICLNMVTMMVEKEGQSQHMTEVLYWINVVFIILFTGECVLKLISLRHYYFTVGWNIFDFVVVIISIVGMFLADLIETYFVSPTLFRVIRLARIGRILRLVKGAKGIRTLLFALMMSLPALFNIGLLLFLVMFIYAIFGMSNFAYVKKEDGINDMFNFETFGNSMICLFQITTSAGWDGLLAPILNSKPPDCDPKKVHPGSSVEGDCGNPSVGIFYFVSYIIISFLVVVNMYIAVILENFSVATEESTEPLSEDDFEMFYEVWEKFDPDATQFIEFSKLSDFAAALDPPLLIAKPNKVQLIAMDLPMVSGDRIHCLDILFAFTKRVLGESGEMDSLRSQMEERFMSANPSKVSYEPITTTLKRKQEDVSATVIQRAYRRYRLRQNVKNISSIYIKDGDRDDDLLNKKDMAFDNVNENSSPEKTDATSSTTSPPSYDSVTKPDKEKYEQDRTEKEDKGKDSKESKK

In general, IC50 refers to the concentration that gives 50% inhibition. A lower IC50 goes with greater potency. In turn, `COc1cc(-c2ccc(Cl)c(C)c2)ccc1-n1c(=O)ccc2cc(S(=O)(=O)Nc3cnccn3)ccc21` [Example 659, 1-(4′-chloro-3-methoxy-3′-methyl-4-biphenylyl)-2-oxo-N-2-pyrazinyl-1,2-dihydro-6-quinolinesulfonamide] gave a half-inhibitory concentration (IC50) (in-vitro Nav 1.7 PX data) of 35 nM.
Molecule `COc1ccc(-c2cc(F)cc(Cl)c2)cc1-n1c(=O)ccc2cc(S(=O)(=O)Nc3ccon3)ccc21` [Example 859, 1-(3′-chloro-5′-fluoro-4-methoxy-3-biphenylyl)-N-3-isoxazolyl-2-oxo-1,2-dihydro-6-quinolinesulfonamide] registered an IC50 (in-vitro Nav 1.7 PX data) of 675 nM.
On to `COc1cc(-c2cnc(OC)c(Cl)c2)c(F)cc1-n1c(=O)ccc2cc(S(=O)(=O)Nc3ncc(F)cn3)ccc21` (atropisomer, axis not shown; (P)) [Example 1156, (P)-1-(4-(5-chloro-6-methoxy-3-pyridinyl)-5-fluoro-2-methoxyphenyl)-N-(5-fluoro-2-pyrimidinyl)-2-oxo-1,2-dihydro-6-quinolinesulfonamide], for which the 50% inhibitory concentration (IC50) stood at 42 nM.
`COc1ccc(-c2ccc(-n3c(=O)ccc4cc(S(=O)(=O)Nc5ccon5)ccc43)c(OC)c2)c(Cl)c1` [Example 1061, 1-(2′-chloro-3,4′-dimethoxy-4-biphenylyl)-N-3-isoxazolyl-2-oxo-1,2-dihydro-6-quinolinesulfonamide] showed an IC50 (in-vitro Nav 1.7 PX data (PatchXpress)) of 61 nM.
For the setting “in-vitro Nav 1.7 PX data”, `COc1cc(-c2ccc(F)cc2)c(F)cc1-n1c(=O)ccc2cc(S(=O)(=O)Nc3cccnn3)ccc21` [Example 770, 1-(2,4′-difluoro-5-methoxy-4-biphenylyl)-2-oxo-N-3-pyridazinyl-1,2-dihydro-6-quinolinesulfonamide] had an IC50 of 33 nM.
Take `COc1nc(OC2CCC2)c(Cl)cc1-n1c(=O)ccc2cc(S(=O)(=O)Nc3ccon3)ccc21` [Example 821, 1-(5-chloro-6-(cyclobutyloxy)-2-methoxy-3-pyridinyl)-N-3-isoxazolyl-2-oxo-1,2-dihydro-6-quinolinesulfonamide]: half-maximal inhibition (in-vitro Nav 1.7 PX data) (IC50) was put at 4660 nM.
Same read-out and setting: the result for `COc1cc(Cl)c(-c2cc(F)cc(Cl)c2)cc1-n1c(=O)ccc2cc(S(=O)(=O)Nc3ccon3)ccc21` (atropisomer, axis not shown; (P)) [Example 614, (P)-1-(3′,6-dichloro-5′-fluoro-4-methoxy-3-biphenylyl)-N-3-isoxazolyl-2-oxo-1,2-dihydro-6-quinolinesulfonamide] reads 9 nM; that for `COc1ccc(Cl)cc1-c1cc(OC)c(-n2c(=O)ccc3cc(S(=O)(=O)Nc4ccon4)ccc32)cc1F` [Example 744, 1-(5′-chloro-2-fluoro-2′,5-dimethoxy-4-biphenylyl)-N-3-isoxazolyl-2-oxo-1,2-dihydro-6-quinolinesulfonamide], 7 nM.
`COc1cc(Br)c(Cl)cc1-n1c(=O)ccc2cc(S(=O)(=O)Nc3ccon3)ccc21` (atropisomer, axis not shown; (P)) [Example 473, (P)-1-(4-bromo-5-chloro-2-methoxyphenyl)-N-(isoxazol-3-yl)-2-oxo-1,2-dihydroquinoline-6-sulfonamide] gave an IC50 of 178 nM.
Regarding `COc1cc(-c2cc(Cl)cnc2OC)c(F)cc1-n1c(=O)ccc2cc(S(=O)(=O)Nc3cc(C)ncn3)ccc21` [Example 777, 1-(4-(5-chloro-2-methoxy-3-pyridinyl)-5-fluoro-2-methoxyphenyl)-N-(6-methyl-4-pyrimidinyl)-2-oxo-1,2-dihydro-6-quinolinesulfonamide], for the setting “in-vitro Nav 1.7 PX data”, half-maximal inhibition (IC50) was put at 103 nM.
For `COc1cc(C2CC2)ccc1-n1c(=O)ccc2cc(S(=O)(=O)Nc3ccon3)ccc21` (atropisomer, axis not shown; (P)) [Example 1210, (P)-1-(4-cyclopropyl-2-methoxyphenyl)-N-3-isoxazolyl-2-oxo-1,2-dihydro-6-quinolinesulfonamide], 2370 nM corresponded to half-maximal inhibition (IC50).
`COc1cc(-c2ccnc(OC)c2Cl)c(F)cc1-n1c(=O)ccc2cc(S(=O)(=O)Nc3ccon3)ccc21` [Example 745, 1-(4-(3-chloro-2-methoxy-4-pyridinyl)-5-fluoro-2-methoxyphenyl)-N-3-isoxazolyl-2-oxo-1,2-dihydro-6-quinolinesulfonamide]: the IC50 (in-vitro Nav 1.7 PX data) stood at 51 nM.
The molecule `COc1cc(-c2cccc(Cl)c2)ccc1-n1c(=O)ccc2cc(S(=O)(=O)Nc3ccon3)ccc21` [Example 351, M-1-(3′-chloro-3-methoxy-[1,1′-biphenyl]-4-yl)-N-(isoxazol-3-yl)-2-oxo-1,2-dihydroquinoline-6-sulfonamide] came in with an IC50 of 5520 nM.
In the case of `COc1cc(-c2ccc(Cl)c(C)c2)c(F)cc1-n1c(=O)ccc2cc(S(=O)(=O)Nc3ccsn3)ccc21` [Example 1073, 1-(4′-chloro-2-fluoro-5-methoxy-3′-methyl-4-biphenylyl)-N-3-isothiazolyl-2-oxo-1,2-dihydro-6-quinolinesulfonamide], the IC50 (in-vitro Nav 1.7 PX data) worked out at 23 nM.
With `COc1cc(F)cc(-c2ccc(-n3c(=O)ccc4cc(S(=O)(=O)Nc5ccnc(C)n5)ccc43)c(OC)c2)c1` [Example 1003, 1-(3′-fluoro-3,5′-dimethoxy-4-biphenylyl)-N-(2-methyl-4-pyrimidinyl)-2-oxo-1,2-dihydro-6-quinolinesulfonamide], 1260 nM corresponded to half-maximal inhibition (in-vitro Nav 1.7 PX data) (IC50).
Molecule `COc1cc(Cl)cc(-c2cc(OC)c(-n3c(=O)ccc4cc(S(=O)(=O)Nc5ccon5)ccc43)cc2F)c1` (atropisomer, axis not shown; (P)) [Example 501, (P)-1-(3′-chloro-2-fluoro-5,5′-dimethoxy-4-biphenylyl)-N-3-isoxazolyl-2-oxo-1,2-dihydro-6-quinolinesulfonamide] came in with an IC50 (in-vitro PatchXpress (PX)) of 4 nM.
Molecule `COc1ccc(-c2cc(C)cc(Cl)c2)cc1-n1c(=O)ccc2cc(S(=O)(=O)Nc3ccon3)ccc21` [Example 867, 1-(3′-chloro-4-methoxy-5′-methyl-3-biphenylyl)-N-3-isoxazolyl-2-oxo-1,2-dihydro-6-quinolinesulfonamide] displayed an IC50 (in-vitro Nav 1.7 PX data) of 16 nM.
For `COc1cc(-c2cc(OC)c(-n3c(=O)ccc4cc(S(=O)(=O)Nc5ccon5)ccc43)cc2F)ccc1C#N` [Example 720, 1-(4′-cyano-2-fluoro-3′,5-dimethoxy-4-biphenylyl)-N-3-isoxazolyl-2-oxo-1,2-dihydro-6-quinolinesulfonamide], the IC50 (in-vitro Nav 1.7 PX data) was found to be 54 nM.
For the molecule `COc1cc(-c2cc(C)cc(Cl)c2)c(F)cc1-n1c(=O)ccc2cc(S(=O)(=O)Nc3ccon3)ccc21` (atropisomer, axis not shown; (M)) [Example 507, (M)-1-(3′-chloro-2-fluoro-5-methoxy-5′-methyl-4-biphenylyl)-N-3-isoxazolyl-2-oxo-1,2-dihydro-6-quinolinesulfonamide], the IC50 (in-vitro PatchXpress (PX)) worked out at 1010 nM.
On to `COc1cc(-c2cc(Cl)ccc2C)ccc1-n1c(=O)ccc2cc(S(=O)(=O)Nc3ccon3)ccc21` [Example 1029, 1-(5′-chloro-3-methoxy-2′-methyl-4-biphenylyl)-N-3-isoxazolyl-2-oxo-1,2-dihydro-6-quinolinesulfonamide], for which the IC50 (in-vitro Nav 1.7 PX data) came to 3 nM.
The molecule `COc1cc(-c2cc(C)cnc2OC)c(F)cc1-n1c(=O)ccc2cc(S(=O)(=O)Nc3ccon3)ccc21` [Example 715, 1-(5-fluoro-2-methoxy-4-(2-methoxy-5-methyl-3-pyridinyl)phenyl)-N-3-isoxazolyl-2-oxo-1,2-dihydro-6-quinolinesulfonamide] yielded a concentration for half-maximal inhibition (IC50) (in-vitro Nav 1.7 PX data) of 151 nM.
